One assay deals with His-Brd2(60-472) (Homo sapiens (Human), UniProt P25440). Nature of the assay: TR-FRET in-vitro binding assay for BRD2. The settings on record: biochemical. The method in brief: (§1)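 His-tagged BRD2(60-472), BRD3(20-477) or BRD4(44-477), 45 nM in dispensing solution, with 60 nM tetra-acetylated histone H4 peptide (AcK5/8/12/16) in dispensing solution; HEPES pH 7.5, 50 mM NaCl, 0.1% BSA, 30 °C, 35 min. Eu-anti-His6 antibody plus streptavidin-APC added for TR-FRET read-out; 8-point compound dilutions.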

For another assay, the target named is His-Brd3(20-477) (Homo sapiens (Human), UniProt Q15059). Nature of the assay: TR-FRET in-vitro binding assay for BRD3. Conditions: biochemical. The method in brief: as §1
In a further assay the test system is K-562 cells. The experiment in a line: Cell growth inhibition assay (CellTiter-Glo), K-562. It is filed as cell-based, human. The settings on record: Homo sapiens, K562, read-out: K-562 TGI. The method in brief: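 CellTiter-Glo ATP luminescence after compound exposure at 37° C., 5% CO2; 3-fold serial dilutions from 10 μM, 0.1% DMSO vehicle. Readings background- and day 0-corrected, vehicle = 100%, medium = −100%. IC50 and total growth inhibition (TGI) from four-parameter fits.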

Where only a bound is given, the exact number is not on record here.

His-Brd3(20-477), sequence (Q15059 20-477): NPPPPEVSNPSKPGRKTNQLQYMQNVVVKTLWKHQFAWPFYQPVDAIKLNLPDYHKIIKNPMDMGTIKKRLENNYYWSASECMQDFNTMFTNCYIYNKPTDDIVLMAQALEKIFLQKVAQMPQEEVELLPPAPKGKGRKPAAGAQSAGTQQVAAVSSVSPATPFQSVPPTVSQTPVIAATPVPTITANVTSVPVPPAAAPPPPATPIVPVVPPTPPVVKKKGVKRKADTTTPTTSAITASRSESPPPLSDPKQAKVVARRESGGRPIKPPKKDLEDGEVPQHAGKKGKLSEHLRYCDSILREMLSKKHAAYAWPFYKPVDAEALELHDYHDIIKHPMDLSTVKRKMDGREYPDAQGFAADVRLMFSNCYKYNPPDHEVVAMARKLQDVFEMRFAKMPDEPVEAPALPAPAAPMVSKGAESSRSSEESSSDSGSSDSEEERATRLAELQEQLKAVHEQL
His-Brd2(60-472), sequence (P25440 60-472): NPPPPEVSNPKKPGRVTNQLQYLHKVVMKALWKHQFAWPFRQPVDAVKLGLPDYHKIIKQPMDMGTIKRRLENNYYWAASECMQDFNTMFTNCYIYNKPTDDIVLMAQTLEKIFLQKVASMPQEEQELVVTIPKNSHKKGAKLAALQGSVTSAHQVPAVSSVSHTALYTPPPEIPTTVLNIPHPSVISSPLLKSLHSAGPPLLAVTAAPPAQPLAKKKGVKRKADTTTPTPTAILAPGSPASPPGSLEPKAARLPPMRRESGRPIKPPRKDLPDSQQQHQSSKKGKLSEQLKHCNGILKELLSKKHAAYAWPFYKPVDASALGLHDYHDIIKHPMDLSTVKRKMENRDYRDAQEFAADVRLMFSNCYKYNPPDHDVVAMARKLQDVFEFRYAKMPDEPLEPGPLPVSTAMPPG

For `COc1ncccc1-n1nc(C)c2c1C(=O)N(c1cc(C)c3nnc(C)n3n1)C2c1ccc(Cl)cc1` (stereo not drawn) [Example 111, 4-(4-chlorophenyl)-5-(3,8-dimethyl-[1,2,4]triazolo[4,3-b]pyridazin-6-yl)-1-(2-methoxypyridin-3-yl)-3-methyl-4,5-dihydropyrrolo[3,4-c]pyrazol-6(1H)-one], the concentration for half-maximal inhibition (IC50) was found to be 32 nM at His-Brd2(60-472) and 24 nM on His-Brd3(20-477). In the assay with K-562 cells, the IC (total growth inhibition) is over 10 µM.
With `Cc1nn(C2CC2)c2c1C(c1ccc(Cl)cc1)N(c1cc(N(C)C(=O)OC(C)(C)C)c3nnc(C)n3n1)C2=O` (stereo not drawn) [Example 112, tert-butyl (6-(4-(4-chlorophenyl)-1-cyclopropyl-3-methyl-6-oxopyrrolo[3,4-c]pyrazol-5(1H,4H,6H)-yl)-3-methyl-[1,2,4]triazolo[4,3-b]pyridazin-8-yl)(methyl)carbamate], the half-maximal inhibitory concentration (IC50) at His-Brd2(60-472) and on His-Brd3(20-477) was over 37000 nM each time. Besides, the IC (total growth inhibition) with K-562 cells is over 10 µM.
Consider `Cc1nn(-c2ccnn2C)c2c1C(c1ccc(Cl)cc1)N(c1cc(C)c3nnc(C)n3n1)C2=O` (stereo not drawn) [Example 114, 4-(4-chlorophenyl)-5-(3,8-dimethyl-[1,2,4]triazolo[4,3-b]pyridazin-6-yl)-3-methyl-1-(1-methyl-1H-pyrazol-5-yl)-4,5-dihydropyrrolo[3,4-c]pyrazol-6(1H)-one], for which the 50% inhibitory concentration (IC50) on His-Brd2(60-472) was found to be 35 nM; on His-Brd3(20-477), 37 nM. In addition, the IC (total growth inhibition) in the assay on K-562 cells was over 10 µM.
The matching figures for `CCn1nc2c(c1C)C(c1ccc(Cl)cc1)N(c1cc(C)c3nnc(C)n3c1)C2=O` (stereo not drawn) [Example 115, 4-(4-chlorophenyl)-5-(3,8-dimethyl-[1,2,4]triazolo[4,3-a]pyridin-6-yl)-2-ethyl-3-methyl-4,5-dihydropyrrolo[3,4-c]pyrazol-6(2H)-one]: 48 nM, 46 nM and over 10 µM.
As for `CCn1nc(C)c2c1C(=O)N(c1cc(C)c3nnc(C)n3c1)C2c1ccc(Cl)cc1` (stereo not drawn) [Example 116, 4-(4-chlorophenyl)-5-(3,8-dimethyl-[1,2,4]triazolo[4,3-a]pyridin-6-yl)-1-ethyl-3-methyl-4,5-dihydropyrrolo[3,4-c]pyrazol-6(1H)-one], the values for the IC50 on His-Brd2(60-472) and at His-Brd3(20-477) were 36 nM and 32 nM, respectively. In addition, in the assay with K-562 cells, the IC (total growth inhibition) was over 10 µM.
Taken in the same sequence, the figures for `Cc1cc(N2C(=O)c3c(c(C4CC4)nn3-c3ccnn3C)C2c2ccc(Cl)cc2)cn2c(C)nnc12` (stereo not drawn) [Example 117, 4-(4-chlorophenyl)-3-cyclopropyl-5-(3,8-dimethyl-[1,2,4]triazolo[4,3-a]pyridin-6-yl)-1-(1-methyl-1H-pyrazol-5-yl)-4,5-dihydropyrrolo[3,4-c]pyrazol-6(1H)-one] were 34 nM, 38 nM and over 10 µM.
Turning to `Cc1nn(-c2ccnn2C)c2c1[C@@H](c1ccc(Cl)cc1)N(c1cc(C)c(=O)n(C)c1)C2=O` [Example 120, (R)-4-(4-chlorophenyl)-5-(1,5-dimethyl-6-oxo-1,6-dihydropyridin-3-yl)-3-methyl-1-(1-methyl-1H-pyrazol-5-yl)-4,5-dihydropyrrolo[3,4-c]pyrazol-6(1H)-one], the figures for the IC50 on His-Brd2(60-472) and on His-Brd3(20-477) were 78 nM and 83 nM, respectively. In addition, in the assay with K-562 cells, the IC (total growth inhibition) was over 10 µM.
The matching figures for `Cc1nn(-c2ccnn2C)c2c1[C@H](c1ccc(Cl)cc1)N(c1cc(C)c(=O)n(C)c1)C2=O` [Example 121, (S)-4-(4-chlorophenyl)-5-(1,5-dimethyl-6-oxo-1,6-dihydropyridin-3-yl)-3-methyl-1-(1-methyl-1H-pyrazol-5-yl)-4,5-dihydropyrrolo[3,4-c]pyrazol-6(1H)-one]: 5300 nM, 5400 nM and over 10 µM.
On to `Cc1nn(-c2ccnn2C)c2c1[C@H](c1ccc(Cl)cc1)N(c1cc(C)c3nnc(C)n3c1)C2=O` [Example 124, (S)-4-(4-chlorophenyl)-5-(3,8-dimethyl-[1,2,4]triazolo[4,3-a]pyridin-6-yl)-3-methyl-1-(1-methyl-1H-pyrazol-5-yl)-4,5-dihydropyrrolo[3,4-c]pyrazol-6(1H)-one], for which the IC50 on His-Brd2(60-472) came to 29000 nM; at His-Brd3(20-477), 37000 nM. Also, the IC (total growth inhibition) with K-562 cells is over 10 µM.
Turning to `Cc1nn(-c2ccnn2C)c2c1[C@@H](c1ccc(Cl)cc1)N(c1cc(C)c3nnc(C)n3c1)C2=O` [Example 125, (R)-4-(4-chlorophenyl)-5-(3,8-dimethyl-[1,2,4]triazolo[4,3-a]pyridin-6-yl)-3-methyl-1-(1-methyl-1H-pyrazol-5-yl)-4,5-dihydropyrrolo[3,4-c]pyrazol-6(1H)-one], the 50% inhibitory concentration (IC50) on His-Brd2(60-472) and at His-Brd3(20-477) was 32 nM in each case. For the same compound, the IC (total growth inhibition) with K-562 cells is over 10 µM.
For the compound `COc1ncccc1-n1nc(C)c2c1C(=O)N(c1cc(C)c(=O)n(C)c1)[C@H]2c1ccc(Cl)cc1` [Example 127, (S)-4-(4-chlorophenyl)-5-(1,5-dimethyl-6-oxo-1,6-dihydropyridin-3-yl)-1-(2-methoxypyridin-3-yl)-3-methyl-4,5-dihydropyrrolo[3,4-c]pyrazol-6(1H)-one], the 50% inhibitory concentration (IC50) turned out to be 4400 nM at His-Brd2(60-472) and 5100 nM on His-Brd3(20-477). Besides, the IC (total growth inhibition) with K-562 cells is over 10 µM.
As for `COc1ncccc1-n1nc(C)c2c1C(=O)N(c1cc(C)c(=O)n(C)c1)[C@@H]2c1ccc(Cl)cc1` [Example 128, (R)-4-(4-chlorophenyl)-5-(1,5-dimethyl-6-oxo-1,6-dihydropyridin-3-yl)-1-(2-methoxypyridin-3-yl)-3-methyl-4,5-dihydropyrrolo[3,4-c]pyrazol-6(1H)-one], the IC50 at His-Brd2(60-472) is 30 nM; on His-Brd3(20-477), 37 nM. In addition, in the assay with K-562 cells, the IC (total growth inhibition) was over 10 µM.
Turning to `Cc1cc(N2C(=O)c3c(c(CO)nn3C3CC3)C2c2ccc(Cl)cc2)cn2c(C)nnc12` (stereo not drawn) [Example 131, 4-(4-chlorophenyl)-1-cyclopropyl-5-(3,8-dimethyl-[1,2,4]triazolo[4,3-a]pyridin-6-yl)-3-(hydroxymethyl)-4,5-dihydropyrrolo[3,4-c]pyrazol-6(1H)-one], the results for the IC50 on His-Brd2(60-472) and on His-Brd3(20-477) were 46 nM and 52 nM, respectively. The IC (total growth inhibition) in the assay with K-562 cells is over 10 µM.
The matching figures for `Cc1nn(C2COC2)c2c1C(c1ccc(Cl)cc1)N(c1cc(C)c(=O)n(C)c1)C2=O` (stereo not drawn) [Example 135, 4-(4-chlorophenyl)-5-(1,5-dimethyl-6-oxo-1,6-dihydropyridin-3-yl)-3-methyl-1-(oxetan-3-yl)-4,5-dihydropyrrolo[3,4-c]pyrazol-6(1H)-one]: 150 nM, 130 nM and over 10 µM.
The matching figures for `Cc1cc(N2C(=O)c3nn(C4COC4)c(C)c3C2c2ccc(Cl)cc2)cn2c(C)nnc12` (stereo not drawn) [Example 136, 4-(4-chlorophenyl)-5-(3,8-dimethyl-[1,2,4]triazolo[4,3-a]pyridin-6-yl)-3-methyl-2-(oxetan-3-yl)-4,5-dihydropyrrolo[3,4-c]pyrazol-6(2H)-one]: 140 nM, 130 nM and over 10 µM.
Take `Cc1nn(C2COC2)c2c1C(c1ccc(Cl)cc1)N(c1cc(C)c3nnc(C)n3c1)C2=O` (stereo not drawn) [Example 137, 4-(4-chlorophenyl)-5-(3,8-dimethyl-[1,2,4]triazolo[4,3-a]pyridin-6-yl)-3-methyl-1-(oxetan-3-yl)-4,5-dihydropyrrolo[3,4-c]pyrazol-6(1H)-one]: the IC50 at His-Brd2(60-472) is 92 nM; at His-Brd3(20-477), 100 nM. The IC (total growth inhibition) with K-562 cells is over 10 µM.
The matching figures for `Cc1nn(C2CN(C)C2)c2c1C(c1ccc(Cl)cc1)N(c1cc(C)c(=O)n(C)c1)C2=O` (stereo not drawn) [Example 140, 4-(4-chlorophenyl)-5-(1,5-dimethyl-6-oxo-1,6-dihydropyridin-3-yl)-3-methyl-1-(1-methylazetidin-3-yl)-4,5-dihydropyrrolo[3,4-c]pyrazol-6(1H)-one]: 420 nM, 440 nM and over 10 µM.
Regarding `Cc1cc(N2C(=O)c3nn(C(=O)N(C)C)c(C)c3C2c2ccc(Cl)cc2)cn(C)c1=O` (stereo not drawn) [Example 141, 4-(4-chlorophenyl)-5-(1,5-dimethyl-6-oxo-1,6-dihydropyridin-3-yl)-N,N,3-trimethyl-6-oxo-5,6-dihydropyrrolo[3,4-c]pyrazole-2(4H)-carboxamide], the IC50 turned out to be 180 nM on His-Brd2(60-472) and 130 nM on His-Brd3(20-477). The IC (total growth inhibition) in the assay on K-562 cells was over 10 µM.
The matching figures for `Cc1nn(C(=O)N(C)C)c2c1C(c1ccc(Cl)cc1)N(c1cc(C)c(=O)n(C)c1)C2=O` (stereo not drawn) [Example 142, 4-(4-chlorophenyl)-5-(1,5-dimethyl-6-oxo-1,6-dihydropyridin-3-yl)-N,N,3-trimethyl-6-oxo-5,6-dihydropyrrolo[3,4-c]pyrazole-1(4H)-carboxamide]: 180 nM, 150 nM and over 10 µM.
As for `CNC(=O)n1nc(C)c2c1C(=O)N(c1cc(C)c(=O)n(C)c1)C2c1ccc(Cl)cc1` (stereo not drawn) [Example 143, 4-(4-chlorophenyl)-5-(1,5-dimethyl-6-oxo-1,6-dihydropyridin-3-yl)-N,3-dimethyl-6-oxo-5,6-dihydropyrrolo[3,4-c]pyrazole-1(4H)-carboxamide], the IC50 on His-Brd2(60-472) worked out at 330 nM; at His-Brd3(20-477) it was 270 nM. Moreover, the IC (total growth inhibition) in the assay on K-562 cells is over 10 µM.

Source of the values: patent publication US8975417B2, “Pyrazolopyrrolidine derivatives and their use in the treatment of disease” (Novartis AG, priority 2013, dated 2015).
